Experimental data published in the supplement of paper PMC10307832.

What was measured:
Assay in all cases: relative viability (nuclei count vs DMSO), 5 days (fraction); higher = more cells survive
CAL-12T = tested on: CAL-12T
Outline: (§1)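 Lung cancer cell lines in 1536-well plates were dosed by pin tool the day after seeding, either with one drug alone or with a fixed anchor-drug dose plus five library-drug doses (not always all listed) in √10 steps. After 5 days, cells were fixed and their nuclei stained in one step (final 0.05% Triton X-100, 1% formaldehyde, 1 ug/ml Hoechst), then counted on 4× images. Relative viability is the nuclei count in treated wells divided by that in vehicle wells. Values are medians of duplicate plates.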

EKVX = tested on: EKVX
Outline: as §1

H3255 = tested on: H3255
Outline: as §1

HCC-15 = tested on: HCC-15
Outline: as §1

HCC-827 = tested on: HCC-827
Outline: as §1

LCLC-97TM1 = tested on: LCLC-97TM1
Outline: as §1

LK-2 = tested on: LK-2
Outline: as §1

NCI-H1355 = tested on: NCI-H1355
Outline: as §1

NCI-H1563 = tested on: NCI-H1563
Outline: as §1

NCI-H1734 = tested on: NCI-H1734
Outline: as §1

NCI-H1755 = tested on: NCI-H1755
Outline: as §1

NCI-H1975 = tested on: NCI-H1975
Outline: as §1

NCI-H2228 = tested on: NCI-H2228
Outline: as §1

NCI-H2405 = tested on: NCI-H2405
Outline: as §1

NCI-H322M = tested on: NCI-H322M
Outline: as §1

NCI-H520 = tested on: NCI-H520
Outline: as §1

NCI-H661 = tested on: NCI-H661
Outline: as §1

PC-14 = tested on: PC-14
Outline: as §1

PC-3 [JPC-3] = tested on: PC-3 [JPC-3]
Outline: as §1

RERF-LC-KJ = tested on: RERF-LC-KJ
Outline: as §1

Work on COc1cc2nccc(Oc3ccc(NC(=O)Nc4cc(C)on4)c(Cl)c3)c2cc1OC [Tivozanib] + Cc1nc(NC(=O)N2CCC[C@H]2C(N)=O)sc1-c1ccnc(C(C)(C)C(F)(F)F)c1 [Alpelisib] (partner 2 µM) yielded a relative viability (CAL-12T; first compound 0.005 µM) of 1.11, a relative viability (CAL-12T; first compound 0.01581 µM) of 1.07 and a relative viability (CAL-12T; first compound 0.05 µM) of 1.31. The relative viability (CAL-12T; first compound 0.5 µM) was 1.32, the relative viability (EKVX; first compound 0.005 µM) was 0.903 and the relative viability (EKVX; first compound 0.01581 µM) was 0.93. It also gave a relative viability (EKVX; first compound 0.05 µM) of 0.958, a relative viability (EKVX; first compound 0.1581 µM) of 0.888 and a relative viability (EKVX; first compound 0.5 µM) of 0.872. The relative viability (H3255; first compound 0.005 µM) was 0.727, the relative viability (H3255; first compound 0.01581 µM) was 0.716 and the relative viability (H3255; first compound 0.05 µM) was 0.684. It also gave a relative viability (H3255; first compound 0.1581 µM) of 0.689, a relative viability (H3255; first compound 0.5 µM) of 0.615 and a relative viability (HCC-15; first compound 0.005 µM) of 0.917. For the same compound, the relative viability (HCC-15; first compound 0.01581 µM) was 0.839, the relative viability (HCC-15; first compound 0.05 µM) was 0.943 and the relative viability (HCC-15; first compound 0.1581 µM) was 0.826. For the same compound, the relative viability (HCC-15; first compound 0.5 µM) was 0.81, the relative viability (HCC-827; first compound 0.005 µM) was 0.902 and the relative viability (HCC-827; first compound 0.01581 µM) was 0.992. It also gave a relative viability (HCC-827; first compound 0.05 µM) of 1.04, a relative viability (HCC-827; first compound 0.1581 µM) of 0.98 and a relative viability (HCC-827; first compound 0.5 µM) of 1.02. It also gave a relative viability (LCLC-97TM1; first compound 0.005 µM) of 0.191, a relative viability (LCLC-97TM1; first compound 0.01581 µM) of 0.206 and a relative viability (LCLC-97TM1; first compound 0.1581 µM) of 0.237. The relative viability (LCLC-97TM1; first compound 0.5 µM) was 0.247, the relative viability (LK-2; first compound 0.005 µM) was 0.93 and the relative viability (LK-2; first compound 0.01581 µM) was 1.19. It also gave a relative viability (LK-2; first compound 0.05 µM) of 1.55, a relative viability (LK-2; first compound 0.1581 µM) of 0.84 and a relative viability (LK-2; first compound 0.5 µM) of 0.896. The relative viability (NCI-H1355; first compound 0.005 µM) was 0.766, the relative viability (NCI-H1355; first compound 0.01581 µM) was 0.693 and the relative viability (NCI-H1355; first compound 0.05 µM) was 0.887. It also gave a relative viability (NCI-H1355; first compound 0.5 µM) of 0.882, a relative viability (NCI-H1563; first compound 0.005 µM) of 0.926 and a relative viability (NCI-H1563; first compound 0.01581 µM) of 0.976. It also gave a relative viability (NCI-H1563; first compound 0.05 µM) of 0.972, a relative viability (NCI-H1563; first compound 0.1581 µM) of 0.843 and a relative viability (NCI-H1563; first compound 0.5 µM) of 0.835. It also gave a relative viability (NCI-H1734; first compound 0.005 µM) of 0.656, a relative viability (NCI-H1734; first compound 0.01581 µM) of 0.66 and a relative viability (NCI-H1734; first compound 0.05 µM) of 0.702. The relative viability (NCI-H1734; first compound 0.1581 µM) was 0.536, the relative viability (NCI-H1734; first compound 0.5 µM) was 0.727 and the relative viability (NCI-H1755; first compound 0.005 µM) was 0.925. It also gave a relative viability (NCI-H1755; first compound 0.01581 µM) of 0.888, a relative viability (NCI-H1755; first compound 0.05 µM) of 1.01 and a relative viability (NCI-H1755; first compound 0.1581 µM) of 0.934. The relative viability (NCI-H1755; first compound 0.5 µM) was 0.84, the relative viability (NCI-H1975; first compound 0.005 µM) was 0.587 and the relative viability (NCI-H1975; first compound 0.01581 µM) was 0.652. It also gave a relative viability (NCI-H1975; first compound 0.05 µM) of 0.672, a relative viability (NCI-H1975; first compound 0.1581 µM) of 0.62 and a relative viability (NCI-H1975; first compound 0.5 µM) of 0.643. The relative viability (NCI-H2228; first compound 0.005 µM) was 0.653, the relative viability (NCI-H2228; first compound 0.01581 µM) was 0.81 and the relative viability (NCI-H2228; first compound 0.05 µM) was 0.944. It also gave a relative viability (NCI-H2228; first compound 0.1581 µM) of 0.743, a relative viability (NCI-H2228; first compound 0.5 µM) of 0.72 and a relative viability (NCI-H2405; first compound 0.005 µM) of 0.776. For the same compound, the relative viability (NCI-H2405; first compound 0.01581 µM) was 0.878, the relative viability (NCI-H2405; first compound 0.05 µM) was 0.823 and the relative viability (NCI-H2405; first compound 0.1581 µM) was 0.737. The relative viability (NCI-H2405; first compound 0.5 µM) was 0.641, the relative viability (NCI-H322M; first compound 0.005 µM) was 0.743 and the relative viability (NCI-H322M; first compound 0.01581 µM) was 0.764. It also gave a relative viability (NCI-H322M; first compound 0.05 µM) of 0.767, a relative viability (NCI-H322M; first compound 0.1581 µM) of 0.756 and a relative viability (NCI-H322M; first compound 0.5 µM) of 0.84. The relative viability (NCI-H520; first compound 0.005 µM) was 0.773, the relative viability (NCI-H520; first compound 0.01581 µM) was 0.847 and the relative viability (NCI-H520; first compound 0.05 µM) was 1.02. It also gave a relative viability (NCI-H520; first compound 0.1581 µM) of 0.74, a relative viability (NCI-H520; first compound 0.5 µM) of 0.714 and a relative viability (NCI-H661; first compound 0.005 µM) of 0.52. For the same compound, the relative viability (NCI-H661; first compound 0.01581 µM) was 0.713, the relative viability (NCI-H661; first compound 0.05 µM) was 0.609 and the relative viability (NCI-H661; first compound 0.1581 µM) was 0.302. For the same compound, the relative viability (NCI-H661; first compound 0.5 µM) was 0.525, the relative viability (PC-14; first compound 0.005 µM) was 0.89 and the relative viability (PC-14; first compound 0.01581 µM) was 0.993. For the same compound, the relative viability (PC-14; first compound 0.05 µM) was 1.07, the relative viability (PC-14; first compound 0.1581 µM) was 0.911 and the relative viability (PC-14; first compound 0.5 µM) was 0.873. For the same compound, the relative viability (PC-3 [JPC-3]; first compound 0.005 µM) was 0.988, the relative viability (PC-3 [JPC-3]; first compound 0.01581 µM) was 1.11 and the relative viability (PC-3 [JPC-3]; first compound 0.05 µM) was 1.15. For the same compound, the relative viability (PC-3 [JPC-3]; first compound 0.1581 µM) was 0.957, the relative viability (PC-3 [JPC-3]; first compound 0.5 µM) was 0.997 and the relative viability (RERF-LC-KJ; first compound 0.005 µM) was 0.729. The relative viability (RERF-LC-KJ; first compound 0.01581 µM) was 0.757, the relative viability (RERF-LC-KJ; first compound 0.05 µM) was 0.965 and the relative viability (RERF-LC-KJ; first compound 0.1581 µM) was 0.689. The relative viability (RERF-LC-KJ; first compound 0.5 µM) was 0.834.
